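Each compound was tested at five concentrations against cells in 96-well plates for 48 hours. GI50 = concentration required for 50% inhibition of growth. TGI marks complete inhibition of growth.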
Experiments:
Assay in all cases: inhibition of tumour cell growth, NCI panel, 48 h
[1] = test system: XF 498 CNS
[2] = test system: KM20L2 colon
[3] = test system: SNB-78 CNS
[4] = test system: LXFL 529 NSCLC
[5] = test system: HS 578T breast
[6] = test system: NCI/ADR-RES ovarian
[7] = test system: PC-3 prostate
[8] = test system: T-47D breast
[9] = test system: MCF7 breast
[10] = test system: MDA-MB-435

Structure (SMILES): CCCCCCCCCCCCC(=O)[O-].CCCCCCCCCCCCC(=O)[O-].CCCCCCCCCCCCC(=O)[O-].CCCCCCCCCCCCC(=O)[O-].[Mo+2].[Mo+2]
- GI50 [1]: 11.3 µM
- TGI [1]: 23.4 µM
- GI50 [2]: 16.2 µM
- TGI [2]: 34.9 µM
- GI50 [3]: 19.9 µM
- TGI [3]: 67.3 µM
- GI50 [4]: 10.7 µM
- TGI [4]: 22.8 µM

Structure (SMILES): O=C(O)c1c[nH]cc1C(=O)O
- TGI [1]: > 100 µM
- TGI [2]: > 100 µM
- TGI [3]: > 100 µM
- TGI [4]: > 100 µM

Structure (SMILES): COc1cc(Oc2c(O)c(C)c(OC)c(C(C)=O)c2O)c(C(C)=O)c(O)c1C
- TGI [1]: > 100 µM
- TGI [2]: > 100 µM
- TGI [3]: > 100 µM
- TGI [4]: > 100 µM

Structure (SMILES): COC(=O)C(=O)C(C(=O)C=C(C)C)C(=O)C(=O)Nc1cccc(C(C)=O)c1 (centres undefined)
- TGI [1]: > 100 µM
- TGI [2]: > 100 µM
- TGI [3]: > 100 µM
- TGI [4]: > 100 µM

Structure (SMILES): O=C1C(=O)N(C2C3CC4CC(C3)CC2C4)C(=O)C(=O)C1c1nc2ccccc2o1 (centres undefined)
- TGI [1]: > 100 µM
- TGI [2]: > 100 µM
- TGI [3]: > 100 µM
- TGI [4]: > 100 µM

Structure (SMILES): O=C1CC2C(=O)N(Cc3ccccc3)C1C(S(=O)(=O)c1ccccc1)C2S(=O)(=O)c1ccccc1 (centres undefined)
- TGI [1]: 3.53 µM
- TGI [2]: 7.4 µM
- TGI [3]: 36.1 µM
- TGI [4]: 2.61 µM

Structure (SMILES): CCSc1nc(COC(=O)NC)c(COC(=O)NC)n1C
- TGI [5]: > 100 µM
- TGI [6]: > 100 µM
- TGI [2]: > 100 µM
- TGI [3]: > 85.9 µM
- TGI [4]: > 54.8 µM
- TGI [7]: > 100 µM
- TGI [8]: > 100 µM
- TGI [9]: > 100 µM
- TGI [10]: > 100 µM

Structure (SMILES): CC(=O)NC(CCCN(Cc1ccccc1)C(=O)N(CCCl)N=O)C(=O)NCc1ccccc1 (centres undefined)
- TGI [1]: > 60.4 µM
- TGI [2]: > 100 µM
- TGI [3]: > 100 µM
- TGI [4]: > 100 µM

Structure (SMILES): CC1CC2(CC[C@@H]1O)OCCO2 (some centres undefined)
- TGI [1]: > 100 µM
- TGI [3]: > 100 µM
- TGI [4]: > 100 µM

Structure (SMILES): C/C=C(/CCCCNCCCC)[Si](C)(C)C
- TGI [1]: 23.7 µM
- TGI [2]: 21.7 µM
- TGI [3]: 29.7 µM
- TGI [4]: 29.3 µM

Structure (SMILES): O=C(Cc1ccccc1)N/N=C(\C1=Nc2ccc([N+](=O)[O-])cc2NC1O)C(O)c1ccc([N+](=O)[O-])cc1 (centres undefined)
- TGI [1]: > 100 µM
- TGI [2]: > 100 µM
- TGI [3]: > 100 µM
- TGI [4]: > 100 µM

Structure (SMILES): CCOc1ccc(NC(=O)CC2SC(N)=NC2=O)cc1 (centres undefined)
- TGI [1]: > 100 µM
- TGI [2]: > 100 µM
- TGI [3]: > 100 µM
- TGI [4]: > 100 µM

Structure (SMILES): C=C(N=[N+]=[N-])c1cn(C2CC(O)C(CO)O2)c(=O)[nH]c1=O (centres undefined)
- TGI [1]: > 100 µM
- TGI [2]: > 100 µM
- TGI [3]: > 100 µM
- TGI [4]: > 100 µM

Structure (SMILES): CCOC(=O)N1C2C=C(C)C(C3C(C)C(=O)N31)N(C(=O)c1ccccc1)O2 (centres undefined)
- TGI [1]: > 100 µM
- TGI [3]: > 100 µM
- TGI [4]: > 100 µM

Structure (SMILES): Clc1ccc(CN2COc3c(cc(Cl)c4cccnc34)C2)cc1
- TGI [1]: 7.24 µM
- TGI [2]: 27.5 µM
- TGI [3]: 17.9 µM
- TGI [4]: 2.71 µM

Structure (SMILES): Cc1c2ccncc2c(C)c2c1[nH]c1ccc(OC(C)(C)C)cc12
- TGI [1]: 3.75 µM
- TGI [2]: 11.1 µM
- TGI [3]: 6.53 µM
- TGI [4]: 5.5 µM

Structure (SMILES): COC(=O)[C@]1(C)CCC[C@@]2(C)C1CCC1=C[C@@]3(C(C)C)CC[C@]12OO3 (some centres undefined)
- TGI [3]: > 100 µM
- TGI [4]: 74.1 µM

Structure (SMILES): C=CCc1ccc(O)c(-c2cc(C3Oc4c(-c5cc(CC=C)ccc5O)cc(O)cc4[C@@H]3CO)ccc2O)c1 (some centres undefined)
- TGI [2]: 60.3 µM
- TGI [3]: > 100 µM
- TGI [4]: 52.5 µM

Structure (SMILES): CN(C)c1ccc(N=Nc2c([O-])ccc3ccccc23)cc1.[C-]#[O+].[C-]#[O+].[Ir]
- GI50 [1]: 17 µM
- TGI [1]: 33.3 µM
- GI50 [5]: 19.3 µM
- TGI [5]: 70.9 µM
- GI50 [6]: 19.3 µM
- TGI [6]: 57.7 µM
- GI50 [2]: 26 µM
- TGI [2]: 59 µM
- GI50 [4]: 17.2 µM
- TGI [4]: 31.2 µM
- GI50 [7]: 17.7 µM
- TGI [7]: 34.5 µM
- GI50 [9]: 15.8 µM
- TGI [9]: 31.8 µM
- GI50 [10]: 18.8 µM
- TGI [10]: 46.1 µM

Structure (SMILES): CC(C)[C@@H](COC(C)(C)C)N=CN1CCc2c([nH]c3ccccc23)C1
- TGI [1]: > 100 µM
- TGI [2]: > 100 µM
- TGI [3]: > 100 µM
- TGI [4]: > 100 µM

Structure (SMILES): O=C(Nc1cc(Cl)c(Cl)cc1Cl)C(=O)C(C(=O)c1ccc(Cl)c(Cl)c1)C1OC(=O)c2ccccc21 (centres undefined)
- TGI [2]: 33 µM
- TGI [3]: > 100 µM
- TGI [4]: 22.9 µM

Structure (SMILES): Clc1ccc2nc(Oc3ccccc3)cnc2c1
- GI50 [5]: > 100 µM
- TGI [5]: > 100 µM
- GI50 [6]: > 100 µM
- TGI [6]: > 100 µM
- GI50 [7]: > 100 µM
- TGI [7]: > 100 µM
- GI50 [8]: > 100 µM
- TGI [8]: > 100 µM
- GI50 [9]: > 100 µM
- TGI [9]: > 100 µM
- GI50 [10]: > 100 µM
- TGI [10]: > 100 µM

Structure (SMILES): CCOC(=O)c1cnn(-c2ccnc3c(C(F)(F)F)cccc23)c1N
- GI50 [5]: 24.8 µM
- TGI [5]: > 100 µM
- GI50 [6]: > 100 µM
- TGI [6]: > 100 µM
- GI50 [7]: > 100 µM
- TGI [7]: > 100 µM
- GI50 [8]: > 100 µM
- TGI [8]: > 100 µM
- GI50 [9]: > 100 µM
- TGI [9]: > 100 µM
- GI50 [10]: > 100 µM
- TGI [10]: > 100 µM

Structure (SMILES): NCc1ccc(-n2c(-c3nonc3N)nc3cnccc32)cc1
- GI50 [5]: 0.674 µM
- TGI [5]: > 25 µM
- GI50 [6]: > 25 µM
- TGI [6]: > 25 µM
- GI50 [7]: > 19.3 µM
- TGI [7]: > 25 µM
- GI50 [8]: 8.48 µM
- TGI [8]: > 25 µM
- GI50 [9]: 5.19 µM
- TGI [9]: > 25 µM
- GI50 [10]: 20.1 µM
- TGI [10]: > 25 µM

Structure (SMILES): Fc1ccc(Nc2nc(NCCNc3ccnc4cc(Cl)ccc34)nc(N3CCOCC3)n2)cc1
- GI50 [5]: 7.32 µM
- TGI [5]: 28.9 µM
- GI50 [6]: 9.36 µM
- TGI [6]: 26.5 µM
- GI50 [7]: 4.87 µM
- TGI [7]: 18.5 µM
- GI50 [8]: 10.9 µM
- TGI [8]: 27.4 µM
- GI50 [9]: 3.43 µM
- TGI [9]: 14.7 µM
- GI50 [10]: 2.22 µM
- TGI [10]: 5.38 µM

Structure (SMILES): CCc1c[nH]c2ncnc(N3CC[C@@](N)(CNC(=O)c4ccc(F)cc4F)C3)c12
- GI50 [5]: 18.2 µM
- TGI [5]: 75.2 µM
- GI50 [6]: 83.9 µM
- TGI [6]: > 100 µM
- GI50 [7]: 35.4 µM
- TGI [7]: > 100 µM
- GI50 [8]: 30.8 µM
- TGI [8]: > 100 µM
- GI50 [9]: 26.6 µM
- TGI [9]: > 100 µM
- GI50 [10]: 33.5 µM
- TGI [10]: > 100 µM

Structure (SMILES): CN(C)CCNC(=O)c1ccc(Cl)c2c(Nc3ccc(S(N)(=O)=O)cc3)c3ccccc3nc12
- TGI [1]: 2.86 µM
- TGI [2]: 13.4 µM
- TGI [4]: 11.2 µM

Structure (SMILES): COc1ccc(-c2ccc(/C=N/n3c(COc4ccc(Cl)cc4)n[nH]c3=S)o2)c([N+](=O)[O-])c1
- GI50 [5]: 47.7 µM
- TGI [5]: > 100 µM
- GI50 [6]: 15.8 µM
- TGI [6]: 50 µM
- GI50 [7]: 12.2 µM
- TGI [7]: 35.9 µM
- GI50 [8]: 9.57 µM
- TGI [8]: 82.4 µM
- GI50 [9]: 16.9 µM
- TGI [9]: 56.9 µM
- GI50 [10]: 25.9 µM
- TGI [10]: > 100 µM

Structure (SMILES): N#Cc1ccccc1NC(=O)c1ccccc1
- TGI [1]: > 100 µM
- TGI [2]: > 100 µM
- TGI [3]: > 100 µM

Structure (SMILES): C=C(C)CCC(C)N1CCC(N2CCC(C(=O)NCCc3ccccc3)CC2)CC1 (centres undefined)
- GI50 [5]: 20.4 µM
- TGI [5]: 61.8 µM
- GI50 [6]: 37.4 µM
- TGI [6]: > 100 µM
- GI50 [7]: 79.2 µM
- TGI [7]: > 100 µM
- GI50 [8]: 13.4 µM
- TGI [8]: > 100 µM
- GI50 [9]: 19.6 µM
- TGI [9]: > 100 µM
- GI50 [10]: 14 µM
- TGI [10]: 28.5 µM

Reference: PubChem BioAssay (NCI)
